Data from patent US8877786B2, “Substituted carbamoylmethylamino acetic acid derivatives as novel NEP inhibitors” (Novartis AG, priority 2009, dated 2014).

target: recombinant human neutral endopeptidase (NEP, EC 3.4.24.11) (Homo sapiens (Human), UniProt P08473); assay: in vitro inhibition of recombinant human neutral endopeptidase (fluorescence lifetime assay); assay type: biochemical; settings: recombinant human NEP 7 pM, 1 hour pre-incubation at room temperature, pH 7.4, substrate Cys(PT14)-Arg-Arg-Leu-Trp-OH 0.7 μM, FLT read after 1 hour
Text: The activity of a compound according to the present invention can be assessed by the following in vitro & in vivo methods and/or by the following in vitro & in vivo methods well-described in the art. See A fluorescence lifetime-based assay for protease inhibitor profiling on human kallikrein 7 Doering K, Meder G, Hinnenberger M, Woelcke J, Mayr L M, Hassiepen U Biomol Screen.

recombinant human neutral endopeptidase (NEP, EC 3.4.24.11), sequence (P08473 whole entry): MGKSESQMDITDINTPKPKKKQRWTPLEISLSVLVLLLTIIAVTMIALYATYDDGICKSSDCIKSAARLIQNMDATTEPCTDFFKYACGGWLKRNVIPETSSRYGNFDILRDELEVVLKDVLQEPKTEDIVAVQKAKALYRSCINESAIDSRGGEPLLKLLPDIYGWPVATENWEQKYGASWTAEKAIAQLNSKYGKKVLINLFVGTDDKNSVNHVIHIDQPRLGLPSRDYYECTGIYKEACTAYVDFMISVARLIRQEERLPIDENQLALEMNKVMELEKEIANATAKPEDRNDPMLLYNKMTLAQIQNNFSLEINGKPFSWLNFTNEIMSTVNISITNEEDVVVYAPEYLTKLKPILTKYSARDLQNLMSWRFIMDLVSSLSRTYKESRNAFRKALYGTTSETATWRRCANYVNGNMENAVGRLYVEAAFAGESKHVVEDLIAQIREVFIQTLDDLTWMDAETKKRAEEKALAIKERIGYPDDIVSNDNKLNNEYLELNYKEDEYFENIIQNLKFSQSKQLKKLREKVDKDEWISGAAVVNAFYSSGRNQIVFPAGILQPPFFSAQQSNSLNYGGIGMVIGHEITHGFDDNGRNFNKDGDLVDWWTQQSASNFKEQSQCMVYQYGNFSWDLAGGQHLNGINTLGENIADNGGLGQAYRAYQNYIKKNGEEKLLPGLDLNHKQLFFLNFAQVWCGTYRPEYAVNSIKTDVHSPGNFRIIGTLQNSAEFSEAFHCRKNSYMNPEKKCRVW

First: C[C@H](N[C@@H](Cc1ccc(-c2cc(Cl)ccc2Cl)cc1)C(=O)Nc1nnn[nH]1)C(=O)O [Example 3-2, (S)-2-[(S)-2-(2′,5′-dichloro-biphenyl-4-yl)-1-(1H-tetrazol-5-ylcarbamoyl)-ethylamino]-propionic acid]
Second: C[C@H](N[C@@H](Cc1ccc(-c2cccc(Cl)c2)cc1)C(=O)Nc1nnn[nH]1)C(=O)O [Example 3-1, (S)-2-[(S)-2-(3′-chloro-biphenyl-4-yl)-1-(1H-tetrazol-5-ylcarbamoyl)-ethylamino]-propionic acid]
The IC50 of the first is 3.3-fold higher: 300 pM for the first, 90 pM for the second. The second is the more potent here.

Compared with `C[C@H](N[C@@H](Cc1ccc(-c2ccccc2)cc1)C(=O)Nc1nnn[nH]1)C(=O)O` [Example 3-4, (S)-2-[(S)-2-Biphenyl-4-yl-1-(1H-tetrazol-5-ylcarbamoyl)-ethylamino]-propionic acid], `O=C(O)[C@H](CCc1ccccc1)N[C@@H](Cc1ccc(-c2cccc(Cl)c2)cc1)C(=O)Nc1nnn[nH]1` [Example 3-12, (S)-2-[(S)-2-(3′-Chloro-biphenyl-4-yl)-1-(1H-tetrazol-5-ylcarbamoyl)-ethylamino]-4-phenyl-butyric acid] is 55-fold lower in IC50: 11000 pM for the first, 200 pM for the second.

Work on `C[C@H](N[C@@H](Cc1ccc(-c2cccc(Cl)c2)cc1)C(=O)Nc1cc(O)no1)C(=O)O` [Example 3-7, (S)-2-[(S)-2-(3′-Chloro-biphenyl-4-yl)-1-(3-hydroxy-isoxazol-5-ylcarbamoyl)-ethylamino]-propionic acid] yielded an IC50 of 2400 pM.
